Assay results as given in ChEMBL document CHEMBL4334526, “Synthesis of Peptoid-Based Class I-Selective Histone Deacetylase Inhibitors with Chemosensitizing Properties” (J Med Chem, 2019).
Active and inactive are the calls of the source. The rule behind the calls is not given here.

How the values were obtained:
CAL-27 [1] = assay: Cytotoxicity against human CAL27 cells assessed as reduction in cell survival measured after 72 hrs by MTT assay; format: functional, cell-based; settings: CAL-27, 72 h
Histone deacetylase 2 [2] = target: T1, Histone deacetylase 2 (Homo sapiens, UniProt Q92769); assay: Inhibition of recombinant human full length C-terminal FLAG-tagged HDAC2 expressed in baculovirus infected Sf9 insect cells using Boc-Lys(epsilon-acetyl)-AMC as substrate incubated for 90 mins by fluorescence assay; format: cell-based
T1 sequence (Q92769 whole entry): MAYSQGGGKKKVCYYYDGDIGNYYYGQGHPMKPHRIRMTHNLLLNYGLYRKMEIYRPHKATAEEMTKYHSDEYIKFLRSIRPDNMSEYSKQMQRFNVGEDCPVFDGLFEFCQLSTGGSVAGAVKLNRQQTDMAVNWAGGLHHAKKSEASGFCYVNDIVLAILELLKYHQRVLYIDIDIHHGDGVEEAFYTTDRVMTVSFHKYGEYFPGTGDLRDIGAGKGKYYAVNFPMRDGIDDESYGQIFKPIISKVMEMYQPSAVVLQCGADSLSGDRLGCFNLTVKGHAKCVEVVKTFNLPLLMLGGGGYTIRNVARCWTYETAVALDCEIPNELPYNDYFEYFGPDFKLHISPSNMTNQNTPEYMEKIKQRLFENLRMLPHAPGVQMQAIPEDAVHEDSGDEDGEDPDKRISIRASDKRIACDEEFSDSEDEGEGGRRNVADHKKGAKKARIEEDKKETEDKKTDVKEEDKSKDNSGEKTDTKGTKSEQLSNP

[3] = target: Histone deacetylase 3/Nuclear receptor corepressor 2 (HDAC3/NCoR2) (Homo sapiens, UniProt O15379); assay: biochemical; format: cell-based, Sf9
Chain of Histone deacetylase 3/Nuclear receptor corepressor 2 (HDAC3/NCoR2) (O15379 whole entry): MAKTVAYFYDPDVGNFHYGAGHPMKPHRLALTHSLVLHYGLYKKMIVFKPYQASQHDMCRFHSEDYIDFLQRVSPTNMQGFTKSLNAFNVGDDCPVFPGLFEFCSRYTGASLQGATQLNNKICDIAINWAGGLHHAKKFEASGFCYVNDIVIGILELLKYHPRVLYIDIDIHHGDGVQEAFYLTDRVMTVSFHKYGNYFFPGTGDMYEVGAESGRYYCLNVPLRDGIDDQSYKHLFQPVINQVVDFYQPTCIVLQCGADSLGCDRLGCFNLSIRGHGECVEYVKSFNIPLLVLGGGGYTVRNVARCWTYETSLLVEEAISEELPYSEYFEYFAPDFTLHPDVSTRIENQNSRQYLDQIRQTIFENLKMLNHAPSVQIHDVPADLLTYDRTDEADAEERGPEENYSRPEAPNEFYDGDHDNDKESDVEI
Chain of Histone deacetylase 3/Nuclear receptor corepressor 2 (HDAC3/NCoR2) (Q9Y618 whole entry, further chain): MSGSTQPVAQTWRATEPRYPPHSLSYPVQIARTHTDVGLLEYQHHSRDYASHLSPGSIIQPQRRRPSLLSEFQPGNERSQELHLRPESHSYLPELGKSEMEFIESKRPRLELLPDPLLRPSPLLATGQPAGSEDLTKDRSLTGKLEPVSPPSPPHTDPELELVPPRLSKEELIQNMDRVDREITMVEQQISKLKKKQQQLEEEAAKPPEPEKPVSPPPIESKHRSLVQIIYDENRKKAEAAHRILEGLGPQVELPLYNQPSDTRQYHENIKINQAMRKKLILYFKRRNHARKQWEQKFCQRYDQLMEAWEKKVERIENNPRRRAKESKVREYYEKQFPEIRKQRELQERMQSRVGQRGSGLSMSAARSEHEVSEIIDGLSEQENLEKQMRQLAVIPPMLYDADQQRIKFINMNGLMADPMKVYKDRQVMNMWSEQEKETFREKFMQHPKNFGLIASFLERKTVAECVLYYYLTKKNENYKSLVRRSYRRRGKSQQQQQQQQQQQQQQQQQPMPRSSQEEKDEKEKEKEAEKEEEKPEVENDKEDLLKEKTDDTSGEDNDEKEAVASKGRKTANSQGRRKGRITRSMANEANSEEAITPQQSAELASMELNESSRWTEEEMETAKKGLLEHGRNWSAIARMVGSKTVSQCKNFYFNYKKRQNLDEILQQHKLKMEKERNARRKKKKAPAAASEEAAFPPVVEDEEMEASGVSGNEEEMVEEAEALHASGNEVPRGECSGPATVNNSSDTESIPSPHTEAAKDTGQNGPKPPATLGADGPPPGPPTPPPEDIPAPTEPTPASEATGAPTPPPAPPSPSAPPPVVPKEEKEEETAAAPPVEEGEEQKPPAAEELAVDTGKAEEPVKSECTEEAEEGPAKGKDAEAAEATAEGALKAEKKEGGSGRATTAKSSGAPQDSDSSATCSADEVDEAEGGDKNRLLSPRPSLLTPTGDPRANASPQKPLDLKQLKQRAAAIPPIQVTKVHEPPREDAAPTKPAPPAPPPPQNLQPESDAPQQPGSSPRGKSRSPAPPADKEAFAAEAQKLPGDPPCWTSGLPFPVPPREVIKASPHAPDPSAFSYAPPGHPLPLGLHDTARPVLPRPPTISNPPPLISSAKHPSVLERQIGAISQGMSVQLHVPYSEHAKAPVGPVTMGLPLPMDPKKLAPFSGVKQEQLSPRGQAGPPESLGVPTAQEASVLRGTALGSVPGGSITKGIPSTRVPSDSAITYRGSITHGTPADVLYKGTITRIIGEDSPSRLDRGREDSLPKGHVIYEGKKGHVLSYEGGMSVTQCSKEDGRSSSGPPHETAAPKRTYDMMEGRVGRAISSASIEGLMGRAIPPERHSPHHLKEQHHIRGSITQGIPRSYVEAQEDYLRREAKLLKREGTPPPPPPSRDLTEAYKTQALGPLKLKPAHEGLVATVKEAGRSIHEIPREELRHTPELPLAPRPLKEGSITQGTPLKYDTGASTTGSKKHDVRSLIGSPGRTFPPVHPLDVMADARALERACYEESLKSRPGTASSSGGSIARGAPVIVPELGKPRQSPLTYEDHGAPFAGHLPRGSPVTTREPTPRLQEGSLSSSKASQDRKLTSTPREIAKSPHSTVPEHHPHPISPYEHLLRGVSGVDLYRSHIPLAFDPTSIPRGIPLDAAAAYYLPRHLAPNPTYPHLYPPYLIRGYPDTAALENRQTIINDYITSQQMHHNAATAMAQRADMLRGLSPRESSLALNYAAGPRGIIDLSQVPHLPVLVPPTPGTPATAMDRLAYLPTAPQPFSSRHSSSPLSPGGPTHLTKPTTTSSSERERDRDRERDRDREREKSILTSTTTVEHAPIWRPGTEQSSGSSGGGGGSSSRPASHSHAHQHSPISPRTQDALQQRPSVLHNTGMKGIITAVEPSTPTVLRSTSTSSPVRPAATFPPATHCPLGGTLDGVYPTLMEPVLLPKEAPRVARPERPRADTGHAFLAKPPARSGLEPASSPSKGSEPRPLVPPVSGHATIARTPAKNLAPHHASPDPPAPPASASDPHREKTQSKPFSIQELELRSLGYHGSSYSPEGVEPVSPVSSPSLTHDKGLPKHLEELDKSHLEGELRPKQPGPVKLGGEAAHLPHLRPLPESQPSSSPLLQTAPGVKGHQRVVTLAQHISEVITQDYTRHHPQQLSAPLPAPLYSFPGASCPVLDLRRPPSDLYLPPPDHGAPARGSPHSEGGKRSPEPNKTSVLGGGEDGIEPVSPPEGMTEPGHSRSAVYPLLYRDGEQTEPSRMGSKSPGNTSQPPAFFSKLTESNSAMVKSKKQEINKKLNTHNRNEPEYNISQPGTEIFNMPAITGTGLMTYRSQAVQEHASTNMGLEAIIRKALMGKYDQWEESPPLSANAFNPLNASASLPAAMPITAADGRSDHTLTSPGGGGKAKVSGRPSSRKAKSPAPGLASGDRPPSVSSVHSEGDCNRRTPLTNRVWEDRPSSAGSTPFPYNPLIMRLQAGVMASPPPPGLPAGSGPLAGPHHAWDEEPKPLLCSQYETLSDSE
Description: Inhibition of human recombinant full length C-terminal His-tagged HDAC3 (1 to 428 residues)/N-terminal GST-tagged NCOR2 (395 to 489 residues) expressed in baculovirus infected Sf9 insect cells using Boc-Lys(epsilon-acetyl)-AMC as substrate incubated for 90 mins by fluorescence assay

A2780 [4] = assay: Cytotoxicity against human A2780 cells assessed as reduction in cell survival measured after 72 hrs by MTT assay; format: functional, cell-based; settings: A2780, 72 h
Histone deacetylase [5] = assay: Inhibition of HDAC in human A2780 cells using Boc-Lys(epsilon-Ac)-AMC as substrate preincubated for 18 hrs followed by substrate addition and measured after 3 hrs by fluorescence assay; format: cell-based
Histone deacetylase 1 = Histone deacetylase 1 (Homo sapiens, UniProt Q13547); assay: Inhibition of recombinant human full length C-terminal His/FLAG-tagged HDAC1 expressed in baculovirus infected Sf9 insect cells using ZMAL as substrate incubated for 90 mins by fluorescence assay
Chain of Histone deacetylase 1 (Q13547 whole entry): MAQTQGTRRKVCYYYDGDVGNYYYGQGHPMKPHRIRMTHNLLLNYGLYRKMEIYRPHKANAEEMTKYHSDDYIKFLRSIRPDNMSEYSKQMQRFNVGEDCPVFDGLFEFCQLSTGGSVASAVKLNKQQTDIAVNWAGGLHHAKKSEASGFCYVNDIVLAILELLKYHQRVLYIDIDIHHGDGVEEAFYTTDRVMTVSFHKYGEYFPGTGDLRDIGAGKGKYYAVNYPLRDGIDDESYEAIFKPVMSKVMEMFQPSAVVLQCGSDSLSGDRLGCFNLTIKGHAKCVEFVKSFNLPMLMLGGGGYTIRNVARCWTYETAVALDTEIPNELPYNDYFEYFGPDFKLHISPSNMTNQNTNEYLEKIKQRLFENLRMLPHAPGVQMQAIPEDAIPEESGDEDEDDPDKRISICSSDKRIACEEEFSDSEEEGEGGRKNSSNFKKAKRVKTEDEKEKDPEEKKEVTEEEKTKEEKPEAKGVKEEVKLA

Histone deacetylase [6] = assay: Inhibition of HDAC in human CAL27 cells using Boc-Lys(epsilon-Ac)-AMC as substrate preincubated for 18 hrs followed by substrate addition and measured after 3 hrs by fluorescence assay; format: cell-based
[7] = target: T2, Protein deacetylase HDAC6 (Homo sapiens, UniProt Q9UBN7); assay: Inhibition of human full length N-terminal GST-tagged HDAC6 expressed in baculovirus infected Sf9 insect cells ZMAL as substrate incubated for 90 mins by fluorescence assay; format: cell-based
T2 sequence (Q9UBN7 whole entry): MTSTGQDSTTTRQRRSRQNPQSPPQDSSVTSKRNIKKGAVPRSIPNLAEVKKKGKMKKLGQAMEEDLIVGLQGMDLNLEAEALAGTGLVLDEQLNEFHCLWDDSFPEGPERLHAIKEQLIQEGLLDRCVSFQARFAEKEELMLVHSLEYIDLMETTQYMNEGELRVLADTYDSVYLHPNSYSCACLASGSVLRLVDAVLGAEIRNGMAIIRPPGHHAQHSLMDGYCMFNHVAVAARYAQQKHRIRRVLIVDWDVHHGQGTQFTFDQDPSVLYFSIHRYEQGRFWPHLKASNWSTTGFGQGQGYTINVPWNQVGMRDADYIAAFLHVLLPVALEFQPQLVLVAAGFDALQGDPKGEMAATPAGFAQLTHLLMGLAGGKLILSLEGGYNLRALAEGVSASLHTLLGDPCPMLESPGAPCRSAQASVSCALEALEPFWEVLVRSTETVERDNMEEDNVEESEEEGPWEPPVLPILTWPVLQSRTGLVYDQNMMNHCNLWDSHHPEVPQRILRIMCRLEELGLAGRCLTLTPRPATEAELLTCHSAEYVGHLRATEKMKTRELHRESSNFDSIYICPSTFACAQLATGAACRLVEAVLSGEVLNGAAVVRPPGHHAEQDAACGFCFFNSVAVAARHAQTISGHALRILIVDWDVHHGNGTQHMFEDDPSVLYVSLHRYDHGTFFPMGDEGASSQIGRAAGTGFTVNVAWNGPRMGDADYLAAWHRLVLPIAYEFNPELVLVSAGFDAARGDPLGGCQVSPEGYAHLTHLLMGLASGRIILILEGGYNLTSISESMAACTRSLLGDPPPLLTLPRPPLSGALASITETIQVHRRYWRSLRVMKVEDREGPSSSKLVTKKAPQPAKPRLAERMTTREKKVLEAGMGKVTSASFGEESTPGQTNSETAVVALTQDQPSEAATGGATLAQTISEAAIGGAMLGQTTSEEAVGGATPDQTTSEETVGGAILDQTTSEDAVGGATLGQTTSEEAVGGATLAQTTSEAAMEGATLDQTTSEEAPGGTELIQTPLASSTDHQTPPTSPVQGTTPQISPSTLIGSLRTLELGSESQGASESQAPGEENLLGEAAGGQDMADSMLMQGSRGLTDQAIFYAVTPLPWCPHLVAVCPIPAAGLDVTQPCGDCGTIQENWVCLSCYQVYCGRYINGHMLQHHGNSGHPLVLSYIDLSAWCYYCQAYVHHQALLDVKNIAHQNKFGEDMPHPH

Histone deacetylase 2 [8] = target: T1, Histone deacetylase 2; assay: Inhibition of recombinant human full length C-terminal FLAG-tagged HDAC2 expressed in baculovirus infected Sf9 insect cells at 3.33 uM using Boc-Lys(epsilon-acetyl)-AMC as substrate incubated for 90 mins by fluorescence assay relative to control
A2780 [9] = assay: Cytotoxicity against human A2780 cells assessed as reduction in cell survival up to 100 uM measured after 72 hrs by MTT assay; format: functional, cell-based
[10] = target: Histone deacetylase 3/Nuclear receptor corepressor 2 (HDAC3/NCoR2) (Homo sapiens) (UniProt O15379+Q9Y618); assay: Inhibition of human recombinant full length C-terminal His-tagged HDAC3 (1 to 428 residues)/N-terminal GST-tagged NCOR2 (395 to 489 residues) expressed in baculovirus infected Sf9 insect cells at 10 uM using Boc-Lys(epsilon-acetyl)-AMC as substrate incubated for 90 mins by fluorescence assay relative to control
CAL-27 [11] = assay: Potency index, ratio of vorinostat IC50 to test compound IC50 for cytotoxicity against human CAL27 cells; format: functional
Histone deacetylase 2 [12] = target: T1, Histone deacetylase 2; assay: Inhibition of recombinant human full length C-terminal FLAG-tagged HDAC2 expressed in baculovirus infected Sf9 insect cells at 10 uM using Boc-Lys(epsilon-acetyl)-AMC as substrate incubated for 90 mins by fluorescence assay relative to control

IC50 (Histone deacetylase 2 [2]) [µM]	IC50 [3] [µM]	IC50 (Histone deacetylase [5]) [µM]	IC50 (Histone deacetylase 1) [µM]	IC50 (Histone deacetylase [6]) [µM]	IC50 [7] [µM]	inhibition (Histone deacetylase 2 [8]) [%]	inhibition [10] [%]	inhibition (Histone deacetylase 2 [12]) [%]	SMILES	IC50 (CAL-27 [1]) [µM]	IC50 (A2780 [4]) [µM]	Activity (A2780 [9])	Ratio IC50 (CAL-27 [11])
5.95	0.858	43.6	5.46	21.9	> 10	–	–	–	Nc1ccccc1NC(=O)CCCCCN(CC(=O)NC1CCCCC1)C(=O)c1ccccc1	30.9	181	–	–
–	> 10	2.62	0.039	0.85	> 10	36	< 15	–	CN(C)c1ccc(C(=O)N(CC(=O)NCc2ccccc2)Cc2ccc(C(=O)Nc3cc(-c4ccccc4)ccc3N)cc2)cc1	11.1	–	inactive	–
0.485	–	0.81	0.062	0.18	> 10	–	32	–	Cc1cc(C)cc(C(=O)N(CC(=O)NCc2ccccc2)Cc2ccc(C(=O)Nc3ccccc3N)cc2)c1	1.6	2.8	–	1.7
6.66	0.481	22.8	5.55	12.1	> 10	–	–	–	Cc1cc(C)cc(C(=O)N(CCCCCC(=O)Nc2ccccc2N)CC(=O)NC2CCCCC2)c1	17.5	42	–	–
1.6	0.25	8.71	1.16	3.93	> 10	–	–	–	Cc1cc(C)cc(C(=O)N(CCCCCC(=O)Nc2ccccc2N)CC(=O)NCc2ccccc2)c1	13.7	20.9	–	–
5.38	0.646	33.1	6.56	13	> 10	–	–	–	Nc1ccccc1NC(=O)CCCCCN(CC(=O)NC1CCCCC1)C(=O)c1cccc2ccccc12	24.9	18.1	–	–
–	–	1.43	0.277	0.47	> 10	–	23	25	Cc1cc(C)cc(C(=O)N(CC(=O)NCc2ccccc2)Cc2ccc(C(=O)Nc3cc(F)ccc3N)cc2)c1	5.72	5.4	–	–
3.06	0.369	13.4	1.98	6.82	> 10	–	–	–	CN(C)c1ccc(C(=O)N(CCCCCC(=O)Nc2cc(F)ccc2N)CC(=O)NCc2ccccc2)cc1	20.2	25.9	–	–
1.24	0.312	9.25	1.58	4.33	> 10	–	–	–	CN(C)c1ccc(C(=O)N(CCCCCC(=O)Nc2ccccc2N)CC(=O)NCc2ccccc2)cc1	16	18.5	–	–
1.9	0.163	10.2	1.67	4.13	> 10	–	–	–	Nc1ccccc1NC(=O)CCCCCN(CC(=O)NCc1ccccc1)C(=O)c1cccc2ccccc12	11	22.8	–	–
0.786	0.878	1.06	0.103	1.01	> 10	–	–	–	Nc1ccccc1NC(=O)c1ccc(CN(CC(=O)NCc2ccccc2)C(=O)c2cccnc2)cc1	11.2	8.9	–	–
–	–	3.53	2.08	4.81	> 10	–	49	30	COc1ccc(CNC(=O)CN(CCCCCC(=O)Nc2ccccc2N)C(=O)c2cc(C)cc(C)c2)cc1	17.4	24.6	–	–
4.1	0.583	3.17	0.484	3.15	> 10	–	–	–	Cc1cc(C)cc(CNC(=O)CN(CCCCCC(=O)Nc2ccccc2N)C(=O)c2cc(C)cc(C)c2)c1	19.3	5.1	–	–
5.03	0.478	4.48	1.1	4.57	> 10	–	–	–	Cc1ccc(CNC(=O)CN(CCCCCC(=O)Nc2ccccc2N)C(=O)c2cc(C)cc(C)c2)cc1	18.2	9.8	–	–
